Assays:
[1] = system: P. berghei malaria parasites; test: In vivo antimalarial efficacy, single oral dose of trioxane plus mefloquine hydrochloride in P. berghei-infected mice; settings: for mouse survival post infection: single oral dose 6 mg/kg trioxane plus 18 mg/kg mefloquine, or 18 mg/kg mefloquine alone; for % suppression of parasitemia (on day 3 post infection) / average survival (days) after infection: single oral dose of 6 mg/kg trioxane and 18 mg/kg mefloquine hydrochloride (control: mefloquine-HCl only), P. berghei-infected mice; for average survival (days) after infection: groups of 4
Description: Using a standard protocol, see Slack, et al., 2012, 20-gram mice were infected by intraperitonial injection with P. berghei malaria parasites. One day after infection, each mouse in groups of 4 mice received a single oral dose of 6 mg/kg body weight of a trioxane thioacetal combined with 18 mg/kg of the long-lived antimalarial mefloquine hydrochloride. In all cases, parasitemia was decreased by at least 99% on day 3 post infection. Malaria-infected mice receiving no antimalarial drug died on day 6 or 7 post infection. Critically, control groups of mice receiving 6 mg/kg of the popular trioxane drug artemether (2b) plus 18 mg/kg of mefloquine, or just 18 mg/kg of mefloquine alone, survived for about 3 weeks post infection. In contrast, several of the presently disclosed trioxane thioacetals prolonged mouse survival for longer than 3 weeks, and in some instances produced partial cures; for example, 2 of 4 mice in one group (diisopropyl carbamate 3u) appeared healthy and had no detectable parasitemia on day 30 post infection.
The antimalarial efficacy of representative presently disclosed C-10 thioacetals, as well as controls, is summarized in Table 1, which includes the parasitemia levels for mice on day 3 post-infection.

P388 leukemia = settings: NCI Report on NSC 369397, tested on 25 Oct. 1983; cited from earlier work
[2] = single oral dose 6 mg/kg plus 18 mg/kg mefloquine hydrochloride

## C[C@H]1[C@H](SCCCOCc2ccc(F)cc2)O[C@@H]2O[C@]3(C)CC[C@H]4[C@H](C)CC[C@@H]1[C@@]24OO3 [3h, Art-10α-S(CH2)3OCH2PhF-4]
[1]; [2]
  antimalarial efficacy in words: most highly efficacious

## C[C@H]1[C@H](SCCCOCn2nnc3ccccc32)O[C@@H]2O[C@]3(C)CC[C@H]4[C@H](C)CC[C@@H]1[C@@]24OO3 [3k, Art-10α-S(CH2)3OCH2—N-benzotriazole]
[1]; [2]
  antimalarial efficacy in words: most highly efficacious

## CC(C)N(C(=O)OCCCS[C@@H]1O[C@@H]2O[C@]3(C)CC[C@H]4[C@H](C)CC[C@@H]([C@H]1C)[C@@]24OO3)C(C)C [3u, AMJ-Art-10α-S(CH2)3OC(O)N(iPr)2]
[1]; [2]
  antimalarial efficacy in words: most highly efficacious
[1]; single oral dose 6 mg/kg plus 18 mg/kg mefloquine hydrochloride, group of 4 mice
  mice appearing healthy with no detectable parasitemia on day 30 post infection (partial cure): 2 of 4

## CO[C@H]1O[C@@H]2O[C@@]3(C)CC[C@H]4[C@H](C)CC[C@@H]([C@H]1C)[C@@]24OO3 [artemether, reference compound]
[1]
  mouse survival post infection: about 3 weeks

## C[C@@H]1CC[C@H]2[C@@H](C)C(=O)O[C@@H]3O[C@@]4(C)CC[C@@H]1[C@]32OO4 [artemisinin]
P388 leukemia
  activity against P388 leukemia: inactive

## CSC(=O)OCCCS[C@@H]1O[C@@H]2O[C@@]3(C)CC[C@H]4[C@H](C)CC[C@@H]([C@H]1C)[C@@]24OO3 [compound 109, Art-10α-S(CH2)3OC(O)SCH3]
[1]
  % suppression of parasitemia (on day 3 post infection): >99.9%
  average survival (days) after infection: 24.5 days

## CCCSC(=O)OCCCS[C@@H]1O[C@@H]2O[C@@]3(C)CC[C@H]4[C@H](C)CC[C@@H]([C@H]1C)[C@@]24OO3 [compound 110, Art-10α-S(CH2)3OC(O)SnPr]
[1]
  % suppression of parasitemia (on day 3 post infection): >99.9%
  average survival (days) after infection: 19.3 days

## C[C@H]1[C@H](SCCCOC(=O)SC(C)(C)C)O[C@@H]2O[C@@]3(C)CC[C@H]4[C@H](C)CC[C@@H]1[C@@]24OO3 [compound 111, Art-10α-S(CH2)3OC(O)StBu]
[1]
  % suppression of parasitemia (on day 3 post infection): 99.9%
  average survival (days) after infection: 29.8 days

## CSC(=S)OCCCS[C@@H]1O[C@@H]2O[C@]3(C)CC[C@H]4[C@H](C)CC[C@@H]([C@H]1C)[C@@]24OO3 [compound 114, Art-10α-S(CH2)3OC(S)SCH3]
[1]
  % suppression of parasitemia (on day 3 post infection): 99.9%
  average survival (days) after infection: 22.0 days

## Cl.OC(c1cc(C(F)(F)F)nc2c(C(F)(F)F)cccc12)C1CCCCN1 (centres unmarked) [mefloquine-HCl only, mefloquine hydrochloride, reference compound]
[1]
  mouse survival post infection: about 3 weeks
  % suppression of parasitemia (on day 3 post infection): >99.9%
  average survival (days) after infection: 14.0 days

Source: patent US9611273B2, “Trioxane thioacetal monomers and dimers and methods of use thereof” (THE JOHNS HOPKINS UNIVERSITY, priority 2012, dated 2017)
